What is called IC50 is the concentration at which inhibition is half-maximal. A low value points to inhibition by little substance. One may read the MIC as the smallest concentration in the dilution series that meets the test's criterion for growth inhibition. High values mean weaker potency, low ones greater potency.

Data set [1] in a line: Induction of bulk conductivity in soybean asolectin planar lipid bilayers assessed as residual conductance of black lipid bilayer at 250 nM at pH 8.
Data set [2] in a line: Induction of bulk conductivity in soybean asolectin planar lipid bilayers assessed as residual conductance of black lipid bilayer at 0.5 nM at pH 8.
Data set [3] in a line: Hemolytic activity against human erythrocytes at 20 to 140 uM after 30 mins. In kind it is ADME, cell-based. As to conditions: erythrocyte, 0.5 h.
The subject of data set [4] is Plasmodium falciparum. As to the kind of experiment: Antimalarial activity against chloroquine-sensitive Plasmodium falciparum 3D7 after 72 hrs by NBT based LDH assay. In kind it is functional. The settings on record: 3D7, 72 h.
Data set [5] concerns Plasmodium falciparum. As to the kind of experiment: Antimalarial activity against chloroquine-resistant Plasmodium falciparum Dd2 after 72 hrs by NBT based LDH assay. As to conditions: Dd2, 72 h. In kind it is functional.
For a further data set, the system named is Escherichia coli. As to the kind of experiment: Antimicrobial activity against Escherichia coli ATCC 25922 after 16 to 20 hrs by broth microdilution method. In kind it is functional. On the technique in general: In broth dilution the organism is exposed to a series of concentrations in liquid medium.
For a further data set, the system named is Proteus mirabilis. Kind of data set: Antimicrobial activity against Proteus mirabilis ATCC 7002 after 16 to 20 hrs by broth microdilution method. In kind it is functional.
Data set [6] in a line: Stability of the compound in n-Octanol assessed as negative cotton effect at 50 uM by CD spectroscopic method. It is filed as physicochemical.
Another data set has as its system Klebsiella pneumoniae. As to the kind of experiment: Antimicrobial activity against Klebsiella pneumoniae ATCC 13883 after 16 to 20 hrs by broth microdilution method. In kind it is functional.
In another data set the test system is Enterococcus faecalis. Kind of data set: Antimicrobial activity against Enterococcus faecalis ATCC 29212 after 16 to 20 hrs by broth microdilution method. It is filed as functional.
Another data set deals with Enterococcus faecium. As to the kind of experiment: Antimicrobial activity against Enterococcus faecium DSMZ 20477 after 16 to 20 hrs by broth microdilution method. In kind it is functional.
For the next data set, the system named is Staphylococcus aureus. Kind of data set: Antimicrobial activity against methicillin-resistant Staphylococcus aureus ATCC 43300 after 16 to 20 hrs by broth microdilution method. In kind it is functional.
A short description of data set [7]: Stability of the compound in 1,4-dioxane assessed as negative cotton effect at 50 uM by CD spectroscopic method. It is filed as physicochemical.
The subject of the next data set is Pseudomonas aeruginosa. Kind of data set: Antimicrobial activity against Pseudomonas aeruginosa ATCC 27853 after 16 to 20 hrs by broth microdilution method. In kind it is functional.
The nature of data set [8]: Stability of the compound in MeOH assessed as negative cotton effect at 50 uM by CD spectroscopic method. In kind it is physicochemical.
The next data set concerns Streptococcus pneumoniae. Kind of data set: Antimicrobial activity against Streptococcus pneumoniae serotype 19A after 16 to 20 hrs by broth microdilution method. In kind it is functional.
For data set [9], the system named is Staphylococcus epidermidis. As to the kind of experiment: Antimicrobial activity against Staphylococcus epidermidis PP62A after 16 to 20 hrs by broth microdilution method. In kind it is functional.
The nature of data set [10]: Stability of the compound in THF assessed as negative cotton effect at 50 uM by CD spectroscopic method. It is filed as physicochemical.
Data set [11] is described as follows: Stability of the compound in acetonitrile assessed as negative cotton effect at 50 uM by CD spectroscopic method. It is filed as physicochemical.

The structures appear in SMILES notation. ≈ marks a conversion by molar mass, not a printed value.

As to `CC(C)C[C@H]1NC(=O)[C@H](C)NC(=O)CNC(=O)[C@H](C(C)C)NC(=O)CCSSCCC(=O)N[C@@H](C(C)C)C(=O)NCC(=O)N[C@@H](C)C(=O)N[C@H](CC(C)C)C(=O)N[C@@H](C)C(=O)N[C@H](C(C)C)C(=O)N[C@@H](C(C)C)C(=O)N[C@H](C(C)C)C(=O)N[C@@H](Cc2c[nH]c3ccccc23)C(=O)N[C@H](CC(C)C)C(=O)N[C@@H](Cc2c[nH]c3ccccc23)C(=O)N[C@H](CC(C)C)C(=O)N[C@@H](Cc2c[nH]c3ccccc23)C(=O)N[C@H](CC(C)C)C(=O)N[C@@H](Cc2c[nH]c3ccccc23)C(=O)NCCSSCCNC(=O)[C@H](Cc2c[nH]c3ccccc23)NC(=O)[C@@H](CC(C)C)NC(=O)[C@H](Cc2c[nH]c3ccccc23)NC(=O)[C@@H](CC(C)C)NC(=O)[C@H](Cc2c[nH]c3ccccc23)NC(=O)[C@@H](CC(C)C)NC(=O)[C@H](Cc2c[nH]c3ccccc23)NC(=O)[C@@H](C(C)C)NC(=O)[C@H](C(C)C)NC(=O)[C@@H](C(C)C)NC(=O)[C@H](C)NC1=O`, the Activity in data set [1] is less than 0.3 uS.

For the compound `CC(C)C[C@@H](NC(=O)[C@H](C)NC(=O)CNC(=O)[C@@H](NC(=O)CCSSCCC(=O)N[C@H](C(=O)NCC(=O)N[C@@H](C)C(=O)N[C@H](CC(C)C)C(=O)N[C@@H](C)C(=O)N[C@@H](C(=O)N[C@H](C(=O)N[C@@H](C(=O)N[C@@H](Cc1c[nH]c2ccccc12)C(=O)N[C@H](CC(C)C)C(=O)N[C@@H](Cc1c[nH]c2ccccc12)C(=O)N[C@H](CC(C)C)C(=O)N[C@@H](Cc1c[nH]c2ccccc12)C(=O)N[C@H](CC(C)C)C(=O)N[C@@H](Cc1c[nH]c2ccccc12)C(=O)NCCO)C(C)C)C(C)C)C(C)C)C(C)C)C(C)C)C(=O)N[C@@H](C)C(=O)N[C@@H](C(=O)N[C@H](C(=O)N[C@@H](C(=O)N[C@@H](Cc1c[nH]c2ccccc12)C(=O)N[C@H](CC(C)C)C(=O)N[C@@H](Cc1c[nH]c2ccccc12)C(=O)N[C@H](CC(C)C)C(=O)N[C@@H](Cc1c[nH]c2ccccc12)C(=O)N[C@H](CC(C)C)C(=O)N[C@@H](Cc1c[nH]c2ccccc12)C(=O)NCCO)C(C)C)C(C)C)C(C)C`, the Activity was 0.4 uS in [2], “Non-Toxic” in data set [3] and 66 uS in data set [1]. Besides, the half-maximal inhibitory concentration (IC50) was 31 nM in the data set on Plasmodium falciparum [4] and 26.5 nM with Plasmodium falciparum [5]. The same compound gave an MIC against Escherichia coli greater than 64 µg/mL.

Regarding `CC(=O)N[C@H](C(=O)NCC(=O)N[C@@H](C)C(=O)N[C@H](CC(C)C)C(=O)N[C@@H](C)C(=O)N[C@@H](C(=O)N[C@H](C(=O)N[C@@H](C(=O)N[C@@H](Cc1c[nH]c2ccccc12)C(=O)N[C@H](CC(C)C)C(=O)N[C@@H](Cc1c[nH]c2ccccc12)C(=O)N[C@H](CC(C)C)C(=O)N[C@@H](Cc1c[nH]c2ccccc12)C(=O)N[C@H](CC(C)C)C(=O)N[C@@H](Cc1c[nH]c2ccccc12)C(=O)NCCSSCCNC(=O)[C@H](Cc1c[nH]c2ccccc12)NC(=O)[C@@H](CC(C)C)NC(=O)[C@H](Cc1c[nH]c2ccccc12)NC(=O)[C@@H](CC(C)C)NC(=O)[C@H](Cc1c[nH]c2ccccc12)NC(=O)[C@@H](CC(C)C)NC(=O)[C@H](Cc1c[nH]c2ccccc12)NC(=O)[C@H](NC(=O)[C@@H](NC(=O)[C@H](NC(=O)[C@H](C)NC(=O)[C@@H](CC(C)C)NC(=O)[C@H](C)NC(=O)CNC(=O)[C@@H](NC(C)=O)C(C)C)C(C)C)C(C)C)C(C)C)C(C)C)C(C)C)C(C)C)C(C)C`, the MIC against Proteus mirabilis, against Klebsiella pneumoniae, against Enterococcus faecalis, in the data set with Enterococcus faecium, in the data set with Staphylococcus aureus and in the data set on Pseudomonas aeruginosa was greater than 64 µg/mL each time. For the same compound, the figures for the MIC (in the data set on Streptococcus pneumoniae; in data set [9]; against Escherichia coli) were 0.1 µg/mL (≈ 0.0262 µM), greater than 64 µg/mL and greater than 64 µg/mL, respectively. In addition, the Stability entry in [6], in data set [7], in [8] and in data set [10] was “Stable” each time. Besides, the Activity result in data set [3] was “Non-Toxic”. In addition, the IC50 with Plasmodium falciparum [4] worked out at 10 nM; in the data set with Plasmodium falciparum [5] it was 0.2 nM.

Consider `CC(=O)N[C@H](C(=O)NCC(=O)N[C@@H](C)C(=O)N[C@H](CC(C)C)C(=O)N[C@@H](C)C(=O)N[C@@H](C(=O)N[C@H](C(=O)N[C@@H](C(=O)N[C@@H](Cc1c[nH]c2ccccc12)C(=O)N[C@H](CC(C)C)C(=O)N[C@@H](Cc1c[nH]c2ccccc12)C(=O)N[C@H](CC(C)C)C(=O)N[C@@H](Cc1c[nH]c2ccccc12)C(=O)N[C@H](CC(C)C)C(=O)N[C@@H](Cc1c[nH]c2ccccc12)C(=O)NCCSSCCC(=O)N[C@H](C(=O)NCC(=O)N[C@@H](C)C(=O)N[C@H](CC(C)C)C(=O)N[C@@H](C)C(=O)N[C@@H](C(=O)N[C@H](C(=O)N[C@@H](C(=O)N[C@@H](Cc1c[nH]c2ccccc12)C(=O)N[C@H](CC(C)C)C(=O)N[C@@H](Cc1c[nH]c2ccccc12)C(=O)N[C@H](CC(C)C)C(=O)N[C@@H](Cc1c[nH]c2ccccc12)C(=O)N[C@H](CC(C)C)C(=O)N[C@@H](Cc1c[nH]c2ccccc12)C(=O)NCCO)C(C)C)C(C)C)C(C)C)C(C)C)C(C)C)C(C)C)C(C)C)C(C)C`, for which the Stability result in data set [6], in data set [7], in [8], in [10] and in [11] was “Stable” in each case. The Activity entry in data set [3] is given as “Non-Toxic”.

Source of the values: ChEMBL document CHEMBL3870335, “Bioactivity of topologically confined gramicidin A dimers” (Bioorg Med Chem, 2017).
